Measurements as given in patent US7579469B2, “Glucocorticoid mimetics, methods of making them, pharmaceutical compositions, and uses thereof” (Boehringer Ingelheim Pharmaceuticals, Inc., priority 2003, dated 2009).

What follows are molecules tested against T1, human glucocorticoid receptor (GR) complex (Homo sapiens, UniProt P04150) (assay: Glucocorticoid receptor competitive binding assay (fluorescence polarization)). Details: competition with TAMRA-labeled dexamethasone.
T1 construct: made in house; host or cells: insect expression system (baculovirus lysate)
T1 sequence (P04150 1-777): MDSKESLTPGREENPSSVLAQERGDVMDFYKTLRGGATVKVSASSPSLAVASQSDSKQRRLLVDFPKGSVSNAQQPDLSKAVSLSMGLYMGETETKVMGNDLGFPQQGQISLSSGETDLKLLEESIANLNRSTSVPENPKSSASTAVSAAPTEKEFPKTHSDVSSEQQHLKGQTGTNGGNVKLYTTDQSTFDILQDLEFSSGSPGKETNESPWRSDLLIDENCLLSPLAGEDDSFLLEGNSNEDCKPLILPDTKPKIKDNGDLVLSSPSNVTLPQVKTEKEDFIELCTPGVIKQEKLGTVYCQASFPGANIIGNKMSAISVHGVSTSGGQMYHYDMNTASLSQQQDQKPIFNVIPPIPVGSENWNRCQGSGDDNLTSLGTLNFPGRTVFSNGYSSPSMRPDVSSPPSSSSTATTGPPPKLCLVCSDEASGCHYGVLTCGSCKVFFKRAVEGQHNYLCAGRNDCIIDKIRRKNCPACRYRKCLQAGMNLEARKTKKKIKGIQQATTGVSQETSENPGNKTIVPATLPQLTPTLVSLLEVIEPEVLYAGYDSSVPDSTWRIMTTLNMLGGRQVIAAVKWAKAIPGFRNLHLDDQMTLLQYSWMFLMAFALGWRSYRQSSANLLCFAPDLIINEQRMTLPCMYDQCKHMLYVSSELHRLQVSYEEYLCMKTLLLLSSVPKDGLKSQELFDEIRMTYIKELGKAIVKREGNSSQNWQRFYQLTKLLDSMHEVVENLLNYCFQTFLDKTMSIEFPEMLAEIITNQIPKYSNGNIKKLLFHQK
Procedure: Compounds of the invention were evaluated for binding to the steroid receptor by a fluorescence polarization competitive binding assay.
A. Glucocorticoid Receptor Competitive Binding Assay
Step 1. Characterization of the Fluorescent Probe
The wavelengths for maximum excitation and emission of the fluorescent probe should first be measured. An example of such a probe is rhodamine (TAMRA)-labeled dexamethasone.
The affinity of the probe for the steroid receptor was then determined in a titration experiment. The fluorescence polarization value of the probe in assay buffer was measured on an SLM-8100 fluorometer using the excitation and emission maximum values described above. Aliquots of expression vector lysate were added and fluorescence polarization was measured after each addition until no further change in polarization value was observed. Non-linear least squares regression analysis was used to calculate the dissociation constant of the probe from the polarization values obtained for lysate binding to the probe.
Step 2. Screening for Inhibitors of Probe Binding
This assay uses fluorescence polarization (FP) to quantitate the ability of test compounds to compete with tetramethyl rhodamine (TAMRA)-labeled dexamethasone for binding to a human glucocorticoid receptor (GR) complex prepared from an insect expression system. The assay buffer was: 10 mM TES, 50 mM KCl, 20 mM Na2MoO4.2H20, 1.5 mM EDTA, 0.04% w/v CHAPS, 10% v/v glycerol, 1 mM dithiothreitol, pH 7.4. Test compounds were dissolved to 1 mM in neat DMSO and then further diluted to 10× assay concentration in assay buffer supplemented with 10% v/v DMSO. Test compounds were serially diluted at 10× assay concentrations in 10% DMSO-containing buffer in 96-well polypropylene plates. Binding reaction mixtures were prepared in 96-well black Dynex microtiter plates by sequential addition of the following assay components to each well: 15 μL of 10× test compound solution, 85 μL of GR-containing baculovirus lysate diluted 1:170 in assay buffer, and 50 μL of 15 nM TAMRA-labeled dexamethasone. Positive controls were reaction mixtures containing no test compound; negative controls (blanks) were reaction mixtures containing 0.7 μM to 2 μM dexamethasone. […] IC50 values were determined by iterative non-linear curve fitting of the FP signal data to a 4-parameter logistic equation.

| Structure (SMILES) | activity in the GR binding assay |
| --- | --- |
| COc1ccc(F)cc1C(C)(C)CC(O)(CN1CCN(C)c2ccccc21)C(F)(F)F (stereo not drawn) [1,1,1-Trifluoro-4-(5-fluoro-2-methoxyphenyl)-4-methyl-2-(4-methyl-3,4-dihydro-2H-quinoxalin-1-ylmethyl)pentan-2-ol] | potent activity |
| CC(C)(CC(O)(Cn1ccc(=O)c2ccc(Cl)cc21)C(F)(F)F)c1cc(F)ccc1O (stereo not drawn) [7-Chloro-1-[4-(5-fluoro-2-hydroxyphenyl)-2-hydroxy-4-methyl-2-trifluoromethylpentyl]-1H-quinolin-4-one] | potent activity |
| COc1ccc(Br)cc1C(C)(C)CC(O)(Cn1ccc(=O)c2ccccc21)C(F)(F)F (stereo not drawn) [1-[4-(5-Bromo-2-methoxyphenyl)-2-hydroxy-4-methyl-2-trifluoromethylpentyl]-1H-quinolin-4-one] | potent activity |
| Cc1ccc(O)c(C(C)(C)CC(O)(Cn2ccc(=O)c3ccccc32)C(F)(F)F)c1 (stereo not drawn) [1-[2-Hydroxy-4-(2-hydroxy-5-methylphenyl)-4-methyl-2-trifluoromethylpentyl]-1H-quinolin-4-one] | potent activity |
| CC(C)(CC(O)(Cn1cnc(=O)c2ccccc21)C(F)(F)F)c1cc(F)ccc1O (stereo not drawn) | potent activity |
| Cc1noc(C)c1-c1ccc(O)c(C(C)(C)CC(O)(Cn2ccc(=O)c3ccccc32)C(F)(F)F)c1 (stereo not drawn) [1-{4-[5-(3,5-Dimethylisoxazol-4-yl)-2-hydroxyphenyl]-2-hydroxy-4-methyl-2-trifluoromethylpentyl}-1H-quinolin-4-one] | potent activity |
| Cc1cn(CC(O)(CC(C)(C)c2cccc3c2OCC3)C(F)(F)F)c2ccccc2c1=O (stereo not drawn) [1-[4-(2,3-Dihydrobenzofuran-7-yl)-2-hydroxy-4-methyl-2-trifluoromethylpentyl]-3-methyl-1H-quinolin-4-one] | potent activity |
| CC1(CC(O)(Cn2ccc(=O)c3ccccc32)C(F)(F)F)CCOc2ccc(F)cc21 (stereo not drawn) [1-[3,3,3-Trifluoro-2-(6-fluoro-4-methylchroman-4-ylmethyl)-2-hydroxypropyl]-1H-quinolin-4-one] | potent activity |
| CC(C)(CC(O)(Cn1ccc(=O)c2ccccc21)C(F)(F)F)c1cc(Br)cc2c1OCO2 (stereo not drawn) [1-[4-(6-Bromobenzo[1,3]dioxol-4-yl)-2-hydroxy-4-methyl-2-trifluoromethylpentyl]-1H-quinolin-4-one] | potent activity |
| Cc1cc2c(c(C(C)(C)CC(O)(Cn3ccc(=O)c4ccccc43)C(F)(F)F)c1)OCC2 (stereo not drawn) [1-[4-(5-Methyl-2,3-dihydrobenzofuran-7-yl)-2-hydroxy-4-methyl-2-trifluoromethylpentyl]-1H-quinolin-4-one] | potent activity |
| Cc1ccc(C(C)(C)CC(O)(Cn2ccc(=O)c3ccccc32)C(F)(F)F)cc1C (stereo not drawn) | potent activity |
| CC(C)(CC(O)(Cn1ccc(=O)c2ncccc21)C(F)(F)F)c1cc(F)ccc1O (stereo not drawn) [1-[4-(5-Fluoro-2-hydroxyphenyl)-2-hydroxy-4-methyl-2-trifluoromethylpentyl]-1H-[1,5]naphthyridin-4-one] | potent activity |
| Cc1cn(CC(O)(CC(C)(C)c2cc(F)ccc2O)C(F)(F)F)c2ccccc2c1=O (stereo not drawn) | potent activity |
| CCC(C)(CC(O)(Cn1ccc(=O)c2ccccc21)C(F)(F)F)c1ccccc1 (stereo not drawn) [1-(2-Hydroxy-4-methyl-4-phenyl-2-trifluoromethylhexyl)-1H-quinolin-4-one] | potent activity |
| COC(=O)Oc1ccc(F)cc1C(C)(C)CC(O)(Cn1ccc(=O)c2ccccc21)C(F)(F)F (stereo not drawn) | potent activity |
| COc1ccc(CN2CCOCC2)cc1C(C)(C)CC(O)(Cn1ccc(=O)c2ccccc21)C(F)(F)F (stereo not drawn) [1-[2-Hydroxy-4-(2-methoxy-5-morpholin-4-ylmethylphenyl)-4-methyl-2-trifluoromethylpentyl]-1H-quinolin-4-one] | potent activity |
| CCOc1cccc(C(C)(C)CC(O)(Cn2ccc(=O)c3ccccc32)C(F)(F)F)c1 (stereo not drawn) | potent activity |

Results, then the molecule that gave them:

| activity in the GR binding assay | Structure (SMILES) |
| --- | --- |
| potent activity | CC(C)(CC(O)(Cn1ccc(=O)c2ccccc21)C(F)(F)F)c1ccc(O)c(F)c1 (stereo not drawn) [1-[4-(3-Fluoro-4-hydroxyphenyl)-2-hydroxy-4-methyl-2-trifluoromethylpentyl]-1H-quinolin-4-one] |
| potent activity | CC(C)(CC(O)(Cn1ccc(=O)c2ccccc21)C(F)(F)F)c1ccc(F)cc1 (stereo not drawn) [1-[4-(4-Fluorophenyl)-2-hydroxy-4-methyl-2-trifluoromethylpentyl]-1H-quinolin-4-one] |
| potent activity | CC(C)(CC(O)(Cn1ccc(=O)c2ccccc21)C(F)(F)F)c1cccc(C2OCCCO2)c1 (stereo not drawn) [1-[4-(3-[1,3]Dioxan-2-ylphenyl)-2-hydroxy-4-methyl-2-trifluoromethylpentyl]-1H-quinolin-4-one] |
| potent activity | COc1cccc(C(C)(C)CC(O)(Cn2ccc(=O)c3ccccc32)C(F)(F)F)c1 (stereo not drawn) [1-[2-Hydroxy-4-(3-methoxyphenyl)-4-methyl-2-trifluoromethylpentyl]-1H-quinolin-4-one] |
| potent activity | CC(C)(CC(O)(Cn1ccc(=O)c2ccccc21)C(F)(F)F)c1cccc(F)c1 (stereo not drawn) [1-[4-(3-Fluorophenyl)-2-hydroxy-4-methyl-2-trifluoromethylpentyl]-1H-quinolin-4-one] |
| potent activity | COc1ccc(F)cc1C(C)(C)CC(C)(O)Cn1cc(C)c(=O)c(C)c1 (stereo not drawn) [1-[4-(5-Fluoro-2-methoxyphenyl)-2-hydroxy-2,4-dimethylpentyl]-3,5-dimethyl-1H-pyridin-4-one] |
| potent activity | CC(C)(CC(O)(Cn1ccc(=O)c2ccccc21)C(F)(F)F)c1cc(F)cc(F)c1 (stereo not drawn) |
| potent activity | COc1ccc(-c2cccs2)cc1C(C)(C)CC(O)(Cn1ccc(=O)c2ccccc21)C(F)(F)F (stereo not drawn) [1-[2-Hydroxy-4-(2-methoxy-5-thiophen-2-ylphenyl)-4-methyl-2-trifluoromethylpentyl]-1H-quinolin-4-one] |
| potent activity | CC(C)(CC(O)(Cn1ccc(=O)c2ccc(O)cc21)C(F)(F)F)c1cc(F)ccc1O (stereo not drawn) |
| potent activity | Cc1cn(CC(O)(CC(C)(C)c2cccc3c2OCC3)C(F)(F)F)c(CO)c(C)c1=O (stereo not drawn) [1-[4-(2,3-Dihydrobenzofuran-7-yl)-2-hydroxy-4-methyl-2-trifluoromethylpentyl]-2-hydroxymethyl-3,5-dimethyl-1H-pyridin-4-one] |
| potent activity | CC(C)(CC(O)(Cn1[nH]c(=O)c2ccccc21)C(F)(F)F)c1cc(F)ccc1O (stereo not drawn) [1-[4-(5-Fluoro-2-hydroxyphenyl)-2-hydroxy-4-methyl-2-trifluoromethylpentyl]-1,2-dihydroindazol-3-one] |
| potent activity | COc1ccc(F)cc1C(C)(C)CC(O)(Cn1[nH]c(=O)c2ccccc21)C(F)(F)F (stereo not drawn) [1-[4-(5-Fluoro-2-methoxyphenyl)-2-hydroxy-4-methyl-2-trifluoromethylpentyl]-1,2-dihydroindazol-3-one] |
| potent activity | CC(C)(CC(O)(Cn1cc(CO)c(=O)c2ccccc21)C(F)(F)F)c1cc(F)ccc1O (stereo not drawn) [1-[4-(5-Fluoro-2-hydroxyphenyl)-2-hydroxy-4-methyl-2-trifluoromethylpentyl]-3-hydroxymethyl-1H-quinolin-4-one] |
